In patent publication US20210267989A1, “Novel Compounds for the Treatment, Alleviation or Prevention of Disorders Associated with Tau Aggregates” (AC Immune SA, priority 2018, published 2021):
Structures can show the parent of a compound that is named as a salt.

target: T1, recombinant full-length (fl)Tau aggregates (longest isoform of human Tau, 2N4R; 441 amino acids) (Homo sapiens, UniProt P10636); experiment: Full-length Tau (flTau) disaggregation assay by Thioflavin T (ThT); assay type: biochemical; settings: ThT fluorescence; 2 μM flTau aggregates, 30 minutes at RT
T1 construct: 35 μM of recombinant full-length (fl)Tau in PBS were aggregated for 24 hours; made in house; host or cells: bacteria
Procedure: Full-Length Tau (flTau) Disaggregation Assay by Thioflavin T (ThT)
The longest isoform of human Tau (2N4R; 441 amino acids) was expressed in bacteria and purified. For the Tau disaggregation assay by ThT, 35 μM of recombinant full-length (fl)Tau in PBS were aggregated for 24 hours at 37° C. in presence of 50 μM of heparin (Sigma-Aldrich) and 10 mM of DTT (Sigma-Aldrich) under shaking at 750 RPM. Compounds were dissolved in anhydrous dimethyl sulfoxide (DMSO, Sigma-Aldrich) to reach a concentration of 10 mM. flTau aggregates and serial dilutions of compounds were mixed together in PBS (volume 50 μL) to a final concentration of 2 μM of flTau aggregates and from 160 to 0.04 μM of compounds. The mixture was incubated for 30 minutes at room temperature (RT), then 40 μL of this mixture were transferred into a black 384-well plate assay (Perkin-Elmer) and mixed with 10 μL of 100 μM ThT in 250 mM glycine (both from Sigma-Aldrich) in PBS. Fluorescence (relative fluorescence units; RFU) was measured in monoplicate or duplicate on a Tecan reader (excitation: 440 nm; emission: 485 nm). Percentage of flTau disaggregation was then calculated and the half maximal effective concentration (EC50) was determined using GraphPad Prism version 5 (GraphPad Software) assuming a one-binding site fitting model.

T1 sequence (P10636 1-441 isoform P10636-8): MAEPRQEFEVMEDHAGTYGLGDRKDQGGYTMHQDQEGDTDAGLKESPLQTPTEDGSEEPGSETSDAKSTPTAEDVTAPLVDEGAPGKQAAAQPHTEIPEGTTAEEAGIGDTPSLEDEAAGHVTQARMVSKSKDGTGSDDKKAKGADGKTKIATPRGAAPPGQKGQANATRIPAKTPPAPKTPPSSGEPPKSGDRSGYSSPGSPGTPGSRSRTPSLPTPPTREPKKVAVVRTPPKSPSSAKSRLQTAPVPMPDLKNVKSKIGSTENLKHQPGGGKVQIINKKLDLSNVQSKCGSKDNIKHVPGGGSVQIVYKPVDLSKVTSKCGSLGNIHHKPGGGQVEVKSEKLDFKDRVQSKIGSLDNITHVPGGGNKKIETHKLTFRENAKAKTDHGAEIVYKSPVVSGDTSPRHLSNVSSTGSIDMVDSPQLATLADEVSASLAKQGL

Row | Structure (SMILES) | EC50
1 | Cn1c2c(c3ccc(F)cc31)CCN(c1ccc3nc(N4CCOCC4)sc3c1)C2 [Example 6] | < 10 µM
2 | Cn1c2c(c3ccc(F)cc31)CCN(c1ccc3sc(N4CCOCC4)nc3c1)C2 [Example 7] | < 10 µM
3 | Cn1c2c(c3cc(F)ccc31)CCN(c1ccc(N3CCOCC3)nc1)C2 [Example 8] | < 10 µM
4 | COc1cc(N2CCc3c(n(C)c4ccc(F)cc34)C2)ccc1F [Example 9] | < 10 µM
5 | CN(C)c1nc2cc(N3CCc4c(n(C)c5ccc(F)cc45)C3)ccc2s1 [Example 11] | < 10 µM
6 | CN(C)c1nc2cc(N3CCc4c(n(C)c5ccc(F)cc45)C3)ccc2o1 [Example 13] | < 10 µM
7 | COc1ccc2c(c1)c1c(n2C)CN(c2ccc3sc(N4CCOCC4)nc3c2)CC1 [Example 14] | < 10 µM
8 | COc1ccc2c(c1)c1c(n2C)CN(c2ccc3nc(N4CCOCC4)sc3c2)CC1 [Example 15] | < 10 µM
9 | COc1ccc2c(c1)c1c(n2C)CN(c2ccc3oc(N4CCOCC4)nc3c2)CC1 [Example 16] | < 10 µM
10 | COc1ccc2c(c1)c1c(n2C)CN(c2ccc3sc(N(C)C)nc3c2)CC1 [Example 17] | < 10 µM
11 | COc1ccc2c(c1)c1c(n2C)CN(c2ccc3nc(N(C)C)sc3c2)CC1 [Example 18] | < 10 µM
12 | COc1ccc2c(c1)c1c(n2C)CN(c2ccc3nc(N(C)C)oc3c2)CC1 [Example 19] | < 10 µM
13 | c1ccc2c3c([nH]c2c1)CN(c1ccc(N2CCOCC2)nc1)CC3 [Example 44 HCl] | < 10 µM
14 | Cn1c2c(c3ccccc31)CCN(c1ccc(N3CCOCC3)cn1)C2 [Example 45 HCl] | < 10 µM
15 | Cn1c2c(c3ccccc31)CCN(c1ccc(N3CCOCC3)nc1)C2 [Example 46 HCl] | 10 to 25 µM
16 | c1ccc2c3c([nH]c2c1)CN(c1ccc(N2CC4COCC4C2)nc1)CC3 (stereo not drawn) [Example 69 HCl] | < 10 µM
17 | c1ccc2c3c([nH]c2c1)CN(c1ccc(N2CC4CC(C2)O4)nc1)CC3 [Example 71 HCl] | 10 to 25 µM

Row | Structure (SMILES) | EC50
18 | C[C@H]1CN(c2ccc(N3CCc4c([nH]c5ccccc45)C3)cn2)CCO1 [Example 74 HCl] | < 10 µM
19 | C[C@@H]1CN(c2ccc(N3CCc4c([nH]c5ccccc45)C3)cn2)CCO1 [Example 75 HCl] | < 10 µM
20 | C[C@@H]1CN(c2ccc(N3CCc4c([nH]c5ccccc45)C3)cn2)C[C@H](C)O1 [Example 76 HCl] | < 10 µM
21 | C[C@H]1COCCN1c1ccc(N2CCc3c([nH]c4ccccc34)C2)cn1 [Example 79 HCl] | 10 to 25 µM
22 | c1ccc2c3c([nH]c2c1)CN(c1ccc(N2CC4(CCOCC4)C2)nc1)CC3 [Example 80 HCl] | 10 to 25 µM
23 | c1ccc2c3c([nH]c2c1)CN(c1ccc(N2CCC4(CC2)COC4)nc1)CC3 [Example 83 HCl] | 25 to 50 µM
24 | c1ccc2c3c([nH]c2c1)CN(c1ccc(N2C[C@H]4C[C@@H]2CO4)nc1)CC3 [Example 85 HCl] | 10 to 25 µM
25 | c1ccc2c3c([nH]c2c1)CN(c1ccc(N2C[C@@H]4C[C@H]2CO4)nc1)CC3 [Example 86 HCl] | < 10 µM
26 | Cn1c2c(c3cc(F)ccc31)CCN(c1ccc3oc(N4CCOCC4)nc3c1)C2 [Example 104] | < 10 µM
27 | Cn1c2c(c3cccnc31)CCN(c1ccc(N3CCOCC3)nc1)C2 [Example 105 HCl] | 25 to 50 µM
28 | Cn1c2c(c3cc(F)cnc31)CCN(c1ccc(N3CCOCC3)cn1)C2 [Example 107 HCl] | 25 to 50 µM
29 | Fc1ccc2c3c([nH]c2c1)CN(c1ccc(N2CCOCC2)nc1)CC3 [Example 108 HCl] | < 10 µM
30 | Fc1ccc2c3c([nH]c2c1)CN(c1ccc(N2CCOCC2)cn1)CC3 [Example 109 HCl] | < 10 µM
31 | Cn1c2c(c3ccc(F)cc31)CCN(c1ccc(N3CCOCC3)nc1)C2 [Example 110 HCl] | < 10 µM
32 | Cn1c2c(c3ccc(F)cc31)CCN(c1ccc(N3CCOCC3)cn1)C2 [Example 111 HCl] | < 10 µM
33 | CCn1c2c(c3ccccc31)CCN(c1ccc(N3CCOCC3)nc1)C2 [Example 123 HCl] | < 10 µM
